Consider three molecules from article PMC6005341, “Identification of “sarsasapogenin-aglyconed” timosaponins as novel Aβ-lowering modulators of amyloid precursor protein processing” (Chemical Science, 2016).

This experiment deals with Aβ42 levels in rat primary cortical neuron culture. As to the kind of experiment: Aβ42 in conditioned medium of rat primary cortical neuron culture, 5-day incubation. To be noted: n = 3. The format is cell-based. From the text:
Reagents: All reagents were of analytical grade (purity > 98%) and were purchased from Sigma-Aldrich Chemical Co. unless otherwise specified. SSG (1) was purchased from Wako Pure Chemical Industries, Ltd. Diosgenin (6), Dioscin (9), Polyphyllin D (10), Timosaponin BI (22) and Timosaponin BII (23) were purchased from Chengdu Must Bio-Technology Co.
Ltd. Yamogenin (7) was bought from Ambinter c/o Greenpharma while Smilagenin (24) was bought from Steraloids Inc. Substances dissolved in DMSO as stock solutions. Cell culture medium constituents were purchased from Life Technologies, Inc.
Cell culture: Neuro-2A cells expressing Swedish mutants of APP (N2A-APPswe provided by Prof. Yifan Han, The Hong Kong Polytechnic University)1 was cultured in minimal essential medium with 2 mM glutamine, 2 mM pyruvate and 10% fetal bovine serum. Cells were seeded at 6-well plate at 1×106 cells/mL and grown for two days until confluence. The medium was replaced and the testing compounds were added at indicated concentrations for […]
Primary cortical neurons were prepared from embryonic day 17 Sprague-Dawley rats (Laboratory Animal Unit, The University of Hong Kong). Cerebral cortices were mechanically dissociated in complete medium (MEM with 18 mM glucose; 2 mM L-glutamine; 5% FBS; hormone cocktail, penicillin (50 U/mL), streptomycin (50 μg/mL), and […]). Cells were seeded onto six-well plate (0.5 × 10^6 cells/well) pre-coated with poly-L-lysine. […]
rabbit antibody (Millipore). The immunoreactivities were detected using enhanced chemiluminescence reagents (GE Health care). […]
Aβ ELISA: Aβ concentrations in conditioned medium were assayed using ELISA kits for human Aβ40, human Aβ42 (ultrasensitive) (Invitrogen), human Aβ38 (MyBioSource) (in N2A-APPswe cells) or Wako High Sensitive Aβx-42 ELISA kit (in Rat primary cortical neuron culture). The viability of the N2A-APPswe and Primary cortical neurons were determined by MTT and LDH release assays, respectively. […]

Take `C[C@H]1CC[C@@]2(OC1)O[C@H]1C[C@H]3[C@@H]4CC[C@@H]5C[C@@H](O[C@@H]6O[C@H](CO)[C@H](O)[C@H](O)[C@H]6O[C@@H]6O[C@H](CO)[C@@H](O)[C@H](O)[C@H]6O)CC[C@]5(C)[C@H]4CC[C@]3(C)[C@H]1[C@@H]2C` [TAIII (2), timosaponin A III]: where the note is “5 μM”, the “Aβ42 reduction (%)” value is recorded as 42 ± 9%.

As for `C[C@H]1CC[C@@]2(OC1)O[C@H]1C[C@H]3[C@@H]4CC[C@@H]5C[C@@H](O)CC[C@]5(C)[C@H]4CC[C@]3(C)[C@H]1[C@@H]2C` [SSG (1), sarsasapogenin], the “Aβ42 reduction (%)” value (5 μM) was determined as 25 ± 4%.

As to `C[C@H]1CC[C@@]2(OC1)O[C@H]1C[C@H]3[C@@H]4CC[C@@H]5C[C@@H](O[C@@H]6O[C@H](CO)[C@H](O)[C@H](O)[C@H]6O)CC[C@]5(C)[C@H]4CC[C@]3(C)[C@H]1[C@@H]2C` [TAI (3), timosaponin A I], the “Aβ42 reduction (%)” value (10 μM) is given as 28 ± 5%.
